IC50 data for 17 compounds are collected here from US8883801B2, “Substituted pyrazolo[1,5-a]pyrimidines as mTOR inhibitors” (Merck Sharp & Dohme Corp., priority 2010, dated 2014).

For one assay, the target named is human mTOR enzyme (Homo sapiens, UniProt P42345). In words: HTRF mTOR enzyme (kinase) assay. In kind it is biochemical. To be noted: rated class; 5 μM ATP, 0.2 μM GST-S6K; read-out: hMTOR IC50.
Assay [1] has as its system mTORC1 activity: phosphorylated 4E-BP1 Thr37/46 (p4E-BP1 Thr37/46) in PC3 cells. In words: mTOR target engagement assay, immunofluorescent cell-based, mTORC1 readout. To be noted: Homo sapiens, PC-3, 1.5 h, rated class, 90 min treatment, read-out: P4EBP1 IC50. How it is done:
The target engagement of mTOR kinase inhibitors was evaluated using an immunofluorescent cell-based assay. In this assay, inhibition of mTORC1 activity was measured by the reduction in the level of phosphorylated 4E-BP1Thr37/46 (p4E-BP1 Thr37/46), and inhibition of mTORC2 activity was measured by the reduction of phosphorylated AKTSer473 (pAKT S473).
PC3 cells (prostate tumor cell-line that contains a mutation in the tumor suppressor PTEN, that promotes the phosphorylation and activation of AKT and 4E-BP1) were used in the immunofluorescence assay. PC3 cells were seeded on 384 well plates (black clear bottom, Matrix #4332) overnight. PC3 cells were then treated with 40 μl of the serially diluted test compounds (in 5% fetal bovine serum, F12 medium containing 0.25% DMSO) for ninety minutes at 37° C. The test compound solution was removed, and the plates were washed gently two times with 25 μl phosphate buffered saline (PBS). The cells were fixed by adding 25 μl of Prefer reagent (from Anatech LTD, Cat#414, a glyoxal fixative for fixing proteins within a cell) for sixty minutes followed by three washes with PBS. 5% Goat serum in PBS/0.3% Triton was used to block non-specific binding (60 minutes).
The primary antibodies targeting pAKT S473 and p4E-BP1 Thr37/46 were diluted into PBS/0.3% Triton and incubated with the cells overnight at 4° C. The antibodies targeting pAKTS473 (Cat#4085, Cell signaling) and p4E-BP1 Thr37/46 (Cat#2855, Cell signaling) were used at a 1:100 dilution. Plates were washed three times with PBS/0.1% Tween 20 before adding the secondary antibody at a 1:200 dilution. (goat anti-rabbit containing a fluorescent label, Alexa Fluor 488, Cat#A11008, Invitrogen) in PBS/0.3% Triton for 60 minutes.
Finally, the plates were washed three times with PBS/0.1% Tween 20 and the fluorescent intensity was read using an Analyst HT from Molecular Devices. The fluorescent intensity values from the serially diluted compound treatment group were analyzed using the Xlfit 4 program ([…]) (Formula 205: Y=Bottom+(Top-Bottom)/(1+(IC50/X)^Hillslope) to generate the IC50 value. Where Top is the maximum signal without Compound (+DMSO only) and Bottom represents maximum inhibition. Y is the fluorescence at some compound concentration. The control used to determine the fluorescent intensities for 100% pAKT S473 or 100% phosphorylated p4E-BP1 Thr37/46 were measured from untreated wells that contained only DMSO, instead of test compound.

For assay [2], the system named is mTORC2 activity: phosphorylated AKT Ser473 (pAKT S473) in PC3 cells. As to the kind of experiment: mTOR target engagement assay, immunofluorescent cell-based, mTORC2 readout. To be noted: Homo sapiens, PC-3, 1.5 h, rated class, 90 min treatment. An outline of the steps:
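Read-out is immunofluorescence intensity, normalized to DMSO-only wells and fitted to a sigmoidal Hill equation for IC50. The mTORC1 arm probes phospho-4E-BP1 Thr37/46 and the mTORC2 arm phospho-AKT Ser473.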

human mTOR enzyme, sequence (P42345 1360-2549 limits assumed): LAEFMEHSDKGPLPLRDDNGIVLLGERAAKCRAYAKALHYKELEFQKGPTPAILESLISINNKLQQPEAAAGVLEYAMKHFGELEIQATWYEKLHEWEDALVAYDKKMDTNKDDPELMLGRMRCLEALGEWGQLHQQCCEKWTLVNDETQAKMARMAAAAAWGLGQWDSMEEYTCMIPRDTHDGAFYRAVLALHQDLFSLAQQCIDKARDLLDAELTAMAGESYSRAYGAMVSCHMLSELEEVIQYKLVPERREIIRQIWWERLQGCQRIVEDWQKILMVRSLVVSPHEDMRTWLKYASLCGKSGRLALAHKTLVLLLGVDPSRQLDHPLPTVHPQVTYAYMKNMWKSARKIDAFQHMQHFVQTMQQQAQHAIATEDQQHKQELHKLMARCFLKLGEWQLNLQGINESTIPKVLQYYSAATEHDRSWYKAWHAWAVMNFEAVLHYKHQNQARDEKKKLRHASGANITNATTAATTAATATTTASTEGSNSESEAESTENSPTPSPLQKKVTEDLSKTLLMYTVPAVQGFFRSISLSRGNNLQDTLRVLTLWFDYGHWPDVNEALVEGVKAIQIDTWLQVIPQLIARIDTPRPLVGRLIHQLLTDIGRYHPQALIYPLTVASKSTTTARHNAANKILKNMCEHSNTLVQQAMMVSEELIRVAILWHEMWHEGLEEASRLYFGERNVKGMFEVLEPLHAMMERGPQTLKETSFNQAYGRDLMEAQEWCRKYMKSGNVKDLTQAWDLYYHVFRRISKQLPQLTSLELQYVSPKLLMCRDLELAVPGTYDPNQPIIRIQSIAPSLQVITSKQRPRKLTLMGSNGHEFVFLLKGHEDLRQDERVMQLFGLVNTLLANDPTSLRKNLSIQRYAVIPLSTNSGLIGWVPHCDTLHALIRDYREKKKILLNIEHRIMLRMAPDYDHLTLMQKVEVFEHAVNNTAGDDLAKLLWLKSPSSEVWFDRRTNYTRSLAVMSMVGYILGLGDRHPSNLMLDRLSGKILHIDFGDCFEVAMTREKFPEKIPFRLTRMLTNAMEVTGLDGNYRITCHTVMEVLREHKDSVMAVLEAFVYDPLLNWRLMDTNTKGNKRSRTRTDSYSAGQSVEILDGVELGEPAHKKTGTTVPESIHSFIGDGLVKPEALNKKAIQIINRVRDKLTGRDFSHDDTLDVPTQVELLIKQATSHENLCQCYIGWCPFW

The IC50 is the concentration at which inhibition is half-maximal. As for `CC(=O)c1c(N)n2ncc(-c3ccc(-c4ccccc4)nc3)c2nc1[C@H]1CC[C@](O)(CS(C)(=O)=O)CC1` [Compound 162, 1-(7-amino-5-((1S,4S)-4-hydroxy-4-(methylsulfonylmethyl)cyclohexyl)-3-(6-phenylpyridin-3-yl)pyrazolo[1,5-a]pyrimidin-6-yl)ethanone], the figures for the half-maximal inhibitory concentration (IC50) (at human mTOR enzyme; in assay [1]; in assay [2]) were 1 to 100 nM, 100 to 1000 nM and 1 to 100 nM, respectively.
Turning to `CC(=O)c1c(N)n2ncc(-c3ccc(-c4ccccc4)nc3)c2nc1[C@H]1CC[C@@](O)(CS(C)(=O)=O)CC1` [Compound 161, 1-(7-amino-5-((1R,4R)-4-hydroxy-4-(methylsulfonylmethyl)cyclohexyl)-3-(6-phenylpyridin-3-yl)pyrazolo[1,5-a]pyrimidin-6-yl)ethanone], the IC50 at human mTOR enzyme is 1 to 100 nM; in assay [1] it was 100 to 1000 nM; in assay [2], 100 to 1000 nM.
As to `CC(=O)c1c(C2CCC(CO)(C(=O)O)CC2)nc2c(-c3ccc(-c4ccccc4)nc3)cnn2c1N` (stereo not drawn) [Compound 133, 4-(6-acetyl-7-amino-3-(6-phenylpyridin-3-yl)pyrazolo[1,5-a]pyrimidin-5-yl)-1-(hydroxymethyl)cyclohexanecarboxylic acid], the IC50 lay in the range of 1 to 100 nM on human mTOR enzyme, 100 to 1000 nM in assay [1] and 100 to 1000 nM in assay [2].
In the case of `CO[C@]1(C(=O)O)CC[C@@H](c2nc3c(-c4cnn(-c5ccccc5)c4)cnn3c(N)c2C(C)=O)CC1` [Compound 36, (1R,4R)-4-(6-acetyl-7-amino-3-(1-phenyl-1H-pyrazol-4-yl)pyrazolo[1,5-a]pyrimidin-5-yl)-1-methoxycyclohexane-carboxylic acid], the values for the IC50 (at human mTOR enzyme; in assay [1]; in assay [2]) were 1 to 100 nM, 100 to 1000 nM and 1 to 100 nM, respectively.
`COCCO[C@]1(C(=O)NO)CC[C@@H](c2nc3c(-c4cnn(-c5ccccc5)c4)cnn3c(N)c2S(C)(=O)=O)CC1` [Compound 88, (1R,4R)-4-(7-amino-6-(methylsulfonyl)-3-(1-phenyl-1H-pyrazol-4-yl)pyrazolo[1,5-a]pyrimidin-5-yl)-N-hydroxy-1-(2-methoxyethoxy)cyclohexanecarboxamide]: the IC50 (on human mTOR enzyme; in assay [1]; in assay [2]) was 1 to 100 nM throughout.
In the case of `CNC(=O)[C@]1(OCCOC)CC[C@H](c2nc3c(-c4cnn(-c5ccccc5)c4)cnn3c(N)c2S(C)(=O)=O)CC1` [Compound 90, (1R,4R)-4-(7-amino-6-(methylsulfonyl)-3-(1-phenyl-1H-pyrazol-4-yl)pyrazolo[1,5-a]pyrimidin-5-yl)-1-(2-methoxyethoxy)-N-methylcyclohexane-carboxamide], the concentration for half-maximal inhibition (IC50) on human mTOR enzyme was in the range of 1 to 100 nM; in assay [1], 1000 to 2000 nM; in assay [2], 100 to 1000 nM.
In the same order, the values of `COCCO[C@]1(C(=O)O)CC[C@H](c2nc3c(-c4cnn(-c5ccccc5)c4)cnn3c(N)c2S(C)(=O)=O)CC1` [Compound 41, (1S,4S)-4-(7-amino-6-(methylsulfonyl)-3-(1-phenyl-1H-pyrazol-4-yl)pyrazolo[1,5-a]pyrimidin-5-yl)-1-(2-methoxyethoxy)-cyclohexanecarboxylic acid] are 1 to 100 nM, 5000 to 15000 nM and 5000 to 15000 nM.
In the same order, the values of `COCCO[C@]1(C(=O)O)CC[C@@H](c2nc3c(-c4cnc5ccc(F)cc5c4)cnn3c(N)c2S(C)(=O)=O)CC1` [Compound 52, (1R,4R)-4-(7-amino-3-(6-fluoroquinolin-3-yl)-6-(methylsulfonyl)-pyrazolo[1,5-a]-pyrimidin-5-yl)-1-(2-methoxyethoxy)-cyclohexanecarboxylic acid] are 1 to 100 nM, 100 to 1000 nM and 100 to 1000 nM.
In the case of `COCCO[C@]1(C(=O)O)CC[C@@H](c2nc3c(-c4ccc(-c5ccccc5)nc4)cnn3c(N)c2S(C)(=O)=O)CC1` [Compound 44, (1R,4R)-4-(7-amino-6-(methylsulfonyl)-3-(6-phenylpyridin-3-yl)pyrazolo[1,5-a]pyrimidin-5-yl)-1-(2-methoxyethoxy) cyclohexanecarboxylic acid], the IC50 at human mTOR enzyme lay in the range of 1 to 100 nM; in assay [1] it was 100 to 1000 nM; in assay [2], 100 to 1000 nM.
With `COCCO[C@]1(C(=O)O)CC[C@@H](c2nc3c(-c4cnn(-c5ccc(F)cc5)c4)cnn3c(N)c2S(C)(=O)=O)CC1` [Compound 43, (1R,4R)-4-(7-amino-3-(1-(4-fluorophenyl)-1H-pyrazol-4-yl)-6-(methylsulfonyl)-pyrazolo[1,5-a]-pyrimidin-5-yl)-1-(2-methoxyethoxy)-cyclohexanecarboxylic acid], the concentration for half-maximal inhibition (IC50) lay within 1 to 100 nM at human mTOR enzyme, 100 to 1000 nM in assay [1] and 100 to 1000 nM in assay [2].
Regarding `COCCO[C@]1(C(=O)O)CC[C@@H](c2nc3c(-c4ccc(-c5nccs5)nc4)cnn3c(N)c2S(C)(=O)=O)CC1` [Compound 47, (1R,4R)-4-(7-amino-6-(methylsulfonyl)-3-(6-(thiazol-2-yl)pyridin-3-yl)pyrazolo[1,5-a]pyrimidin-5-yl)-1-(2-methoxyethoxy) cyclohexanecarboxylic acid], the IC50 fell in the range of 1 to 100 nM at human mTOR enzyme, 2000 to 5000 nM in assay [1] and 2000 to 5000 nM in assay [2].
Consider `COC[C@]1(C(=O)O)CC[C@H](c2nc3c(-c4ccc(-c5ccccc5)nc4)cnn3c(N)c2C(C)=O)CC1` [Compound 18, (1R,4R)-4-(6-acetyl-7-amino-3-(6-phenylpyridin-3-yl)pyrazolo[1,5-a]pyrimidin-5-yl)-1-(methoxymethyl)-cyclohexane-carboxylic acid], for which the 50% inhibitory concentration (IC50) on human mTOR enzyme lay in the range of 1 to 100 nM; in assay [1] it was 100 to 1000 nM; in assay [2] it was 1 to 100 nM.
For the compound `COCCO[C@]1(c2nnc[nH]2)CC[C@@H](c2nc3c(-c4ccc(-c5ccccc5)nc4)cnn3c(N)c2S(C)(=O)=O)CC1` [Compound 128], the half-maximal inhibitory concentration (IC50) on human mTOR enzyme was in the range of 1 to 100 nM; in assay [1], 100 to 1000 nM; in assay [2], 100 to 1000 nM.
As for `CC(=O)c1c(C2CCC(O)(CO)CC2)nc2c(-c3ccc(-c4nccs4)nc3)cnn2c1N` (stereo not drawn) [Compound 156, 1-(7-amino-5-(4-hydroxy-4-(hydroxymethyl)-cyclohexyl)-3-(6-(thiazol-2-yl)pyridin-3-yl)pyrazolo[1,5-a]pyrimidin-6-yl)ethanone], the figures for the IC50 (on human mTOR enzyme; in assay [1]; in assay [2]) were 1 to 100 nM, 100 to 1000 nM and 100 to 1000 nM, respectively.
`COCCO[C@]1(C(=O)NO)CC[C@@H](c2nc3c(-c4ccc(-c5ncc[nH]5)nc4)cnn3c(N)c2C(C)=O)CC1` [Compound 115, (1R,4R)-(3-(6-(1H-imidazol-2-yl)pyridin-3-yl)-6-acetyl-7-aminopyrazolo[1,5-a]pyrimidin-5-yl)-N-hydroxy-1-(2-methoxyethoxy)cyclohexane carboxamide]: the IC50 (at human mTOR enzyme; in assay [1]; in assay [2]) was 1 to 100 nM each time.
In the case of `COCCO[C@]1(c2noc(=O)[nH]2)CC[C@@H](c2nc3c(-c4cnn(-c5ccccc5)c4)cnn3c(N)c2S(C)(=O)=O)CC1` [Compound 121, 3-((1R,4R)-4-(7-amino-6-(methylsulfonyl)-3-(1-phenyl-1H-pyrazol-4-yl)pyrazolo[1,5-a]pyrimidin-5-yl)-1-(2-methoxyethoxy)cyclohexyl)-1,2,4-oxadiazol-5(4H)-one], the IC50 on human mTOR enzyme was 1 to 100 nM; in assay [1], 100 to 1000 nM; in assay [2] it was 100 to 1000 nM.
As for `COCCO[C@]1(C(=O)O)CC[C@@H](c2nc3c(-c4cnc(-c5ccccc5)nc4)cnn3c(N)c2S(C)(=O)=O)CC1` [Compound 46, (1R,4R)-4-(7-amino-6-(methylsulfonyl)-3-(2-phenylpyrimidin-5-yl)pyrazolo[1,5-a]pyrimidin-5-yl)-1-(2-methoxyethoxy) cyclohexanecarboxylic acid], the IC50 at human mTOR enzyme lay within 1 to 100 nM; in assay [1], 5000 to 15000 nM; in assay [2] it was 5000 to 15000 nM.
